Test results published in PMC7582672, “Actions of FTY720 (Fingolimod), a Sphingosine-1-Phosphate Receptor Modulator, on Delayed-Rectifier K^+ Current and Intermediate-Conductance Ca^2+-Activated K^+ Channel in Jurkat T-Lymphocytes” (Molecules, 2020).

Molecular target: T1, intermediate-conductance Ca2+-activated K+ channel (IKCa, KCa3.1) (Homo sapiens, UniProt O15554)
T1 construct: gene KCNN4
Assay: cell-attached single-channel recording in Jurkat T-lymphocytes (activator)
Format: cell-based

T1 sequence (O15554 whole entry): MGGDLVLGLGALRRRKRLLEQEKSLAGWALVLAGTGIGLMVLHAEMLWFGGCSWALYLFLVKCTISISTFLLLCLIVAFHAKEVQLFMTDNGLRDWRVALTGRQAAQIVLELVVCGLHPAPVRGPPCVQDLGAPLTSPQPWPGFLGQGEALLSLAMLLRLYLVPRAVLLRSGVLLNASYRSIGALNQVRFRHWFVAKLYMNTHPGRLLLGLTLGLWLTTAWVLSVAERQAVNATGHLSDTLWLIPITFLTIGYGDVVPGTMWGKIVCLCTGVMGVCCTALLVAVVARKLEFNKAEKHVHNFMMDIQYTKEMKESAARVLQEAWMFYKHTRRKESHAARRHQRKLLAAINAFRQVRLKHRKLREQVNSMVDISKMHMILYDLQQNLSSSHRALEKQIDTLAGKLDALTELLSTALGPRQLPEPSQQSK

SMILES: Oc1cc2ccccc2c2ccccc12 [9-phenanthrol]
- cell-attached single-channel recording in Jurkat T-lymphocytes (activator): activity of IKCa channels, which was sensitive to block by TRAM-34 and to stimulation by 9-phenanthrol, was readily detected
